Assay results reported in patent US20240116897A1, “BENZOTHIAZOLE AND BENZIMIDAZOLE DERIVATIVES, PHARMACEUTICALLY ACCEPTABLE SALT THEREOF, PREPARATION METHOD THEREFOR, AND PHARMACEUTICAL COMPOSITION COMPRISING SAME AS ACTIVE INGREDIENT” (KOREA RESEARCH INSTITUTE OF CHEMICAL TECHNOLOGY, priority 2021, published 2024).

Target: T1, SIRT7 protein (Homo sapiens, UniProt Q9NRC8)
T1 construct: purchased SignalChem S41-30H
T1 sequence (Q9NRC8 1-400): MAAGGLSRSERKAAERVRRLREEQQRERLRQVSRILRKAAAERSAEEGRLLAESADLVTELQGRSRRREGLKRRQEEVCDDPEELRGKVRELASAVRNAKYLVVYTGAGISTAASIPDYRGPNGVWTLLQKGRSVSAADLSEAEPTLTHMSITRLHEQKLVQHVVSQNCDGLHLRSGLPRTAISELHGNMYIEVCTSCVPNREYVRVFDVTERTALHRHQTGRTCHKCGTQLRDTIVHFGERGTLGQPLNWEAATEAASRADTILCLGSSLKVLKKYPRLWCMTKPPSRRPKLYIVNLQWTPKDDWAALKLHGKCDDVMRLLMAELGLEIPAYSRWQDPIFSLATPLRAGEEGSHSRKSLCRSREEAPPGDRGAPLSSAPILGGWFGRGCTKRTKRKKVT
Test: SIRT Glo assay, inhibitory activity against Sirt7
Format: biochemical
Conditions: 10 μM compound
Protocol: Promega's Cat. No. 6450 SIRT Glo assay kit was used, and as the target SIRT7 protein, No. S41-30H protein of SignalChem's Cat. was used. Prepare the compound by diluting it in SIRT Glo buffer in advance to a concentration twice as thick as the final concentration. For the positive control group of white 384 well plate (Greiner Bioone, white, small volume, Cat. No. 874075), and for compound group, dilute sirt7 protein in SIRT Glo buffer and dispense by 5 μL to contain 20 ng per well. In the background control group, 10 μL of SIRT Glo buffer is dispensed.
After adding 5 μL of SIRT Glo buffer to the positive control group, and 5 μL of the diluted compound to the compound group, react for 30 minutes. After making the substrate provided in the SIRT Glo assay, adding 10 μL each, and reacting for 1 hour, the luciferase activity is measured with a microplate reader (Molecular Device, spectramax i3).
Subtract the luciferase level of the background control group in all wells. The % inhibition of the compound was used to obtain the compound's rate of inhibitory activity against sirt7 in the following:
% inhibition=100−(compound group/positive control group)×100.

inhibition at 10 µM [%] | SMILES
12 | CC(C)(C)OC(=O)N1CCN(Cc2ccc(C(=O)Nc3nc4ccccc4[nH]3)cc2)CC1 [Compound 1-1, Tert-Butyl 4-(4-((1H-benzo[d]imidazol-2-yl)carbamoyl)benzyl)piperazine-1-carboxylate]
8 | Cn1c(NC(=O)c2ccc(CN3CCN(C(=O)OC(C)(C)C)CC3)cc2)nc2ccccc21 [Compound 1-2, Tert-Butyl 4-(4-((1-methyl-1H-benzo[d]imidazol-2-yl)carbamoyl)benzyl)piperazine-1-carboxylate]
10 | O=C(Nc1nc2ccccc2[nH]1)c1ccc(CN2CCNCC2)cc1 [Compound 1-3, N-(1H-benzo[d]imidazol-2-yl)-4-(piperazin-1-ylmethyl)benzamide]
90 | Cc1ccc(Oc2ccc(C(=O)Nc3nc4ccccc4[nH]3)cc2)nn1 [Compound 1-4, N-(1H-benzo[d]imidazol-2-yl)-4-((6-methylpyridazin-3-yl)oxy)benzamide]
65 | Cc1ccc(Oc2cccc(C(=O)Nc3nc4ccccc4[nH]3)c2)nn1 [Compound 1-5, N-(1H-benzo[d]imidazol-2-yl)-3-((6-methylpyridazin-3-yl)oxy)benzamide]
92 | Cc1ccc(Oc2ccc(C(=O)Nc3nc4cc(F)ccc4[nH]3)cc2)nn1 [Compound 1-6, N-(5-fluoro-1H-benzo[d]imidazol-2-yl)-4-((6-methylpyridazin-3-yl)oxy)benzamide]
5 | Cc1ccc(Oc2ccc(C(=O)Nc3nc4cc(F)c(F)cc4[nH]3)cc2)nn1 [Compound 1-7, N-(5,6-difluoro-1H-benzo[d]imidazol-2-yl)-4-((6-methylpyridazin-3-yl)oxy)benzamide]
44 | CCc1cnc(Oc2cccc(C(=O)Nc3nc4ccccc4[nH]3)c2)nc1 [Compound 1-8, N-(1H-benzo[d]imidazol-2-yl)-3-((5-ethylpyrimidin-2-yl)oxy)benzamide]
63 | CCc1cnc(Oc2ccc(C(=O)Nc3nc4ccccc4[nH]3)cc2)nc1 [Compound 1-9, N-(1H-benzo[d]imidazol-2-yl)-4-((5-ethylpyrimidin-2-yl)oxy)benzamide]
56 | O=C(Nc1nc2ccccc2[nH]1)c1ccc(Oc2ncc(F)cn2)cc1 [Compound 1-10, N-(1H-benzo[d]imidazol-2-yl)-4-((5-fluoropyrimidin-2-yl)oxy)benzamide]
21 | O=C(Nc1nc2ccccc2[nH]1)c1cccc(Oc2ncc(F)cn2)c1 [Compound 1-11, N-(1H-benzo[d]imidazol-2-yl)-3-((5-fluoropyrimidin-2-yl)oxy)benzamide]
99 | O=C(Nc1nc2ccccc2[nH]1)c1ccc(OCc2ccccc2)cc1 [Compound 1-12, N-(1H-benzo[d]imidazol-2-yl)-4-(benzyloxy)benzamide]
21 | O=C(Nc1nc2ccccc2[nH]1)c1ccc(OCc2ccc(C(F)(F)F)cc2)cc1 [Compound 1-13, N-(1H-benzo[d]imidazol-2-yl)-4-((4-(trifluoromethyl)benzyl)oxy)benzamide]
15 | O=C(Nc1nc2ccccc2n1Cc1ccc(C(F)(F)F)cc1)c1ccc(OCc2ccc(C(F)(F)F)cc2)cc1 [Compound 1-14, N-(1-(4-(trifluoromethyl)benzyl)-1H-benzo[d]imidazol-2-yl)-4-((4-(trifluoromethyl)benzyl)oxy)benzamide]
52 | Cc1ccc(Oc2ccc(C(=O)Nc3nc4ccccc4s3)cc2)nn1 [Compound 1-15, N-(benzo[d]thiazol-2-yl)-4-((6-methylpyridazin-3-yl)oxy)benzamide]
87 | Cc1ccc(Oc2ccc(C(=O)Nc3nc4cccnc4s3)cc2)nn1 [Compound 1-16, 4-((6-methylpyridazin-3-yl)oxy)-N-(thiazolo[5,4-b]pyridin-2-yl)benzamide]
88 | Cc1ccc(Oc2cccc(C(=O)Nc3nc4ccccc4s3)c2)nn1 [Compound 1-17, N-(benzo[d]thiazol-2-yl)-3-((6-methylpyridazin-3-yl)oxy)benzamide]
5 | Cc1ccc(Oc2ccc(C(=O)Nc3nc4ccc(Br)cc4s3)cc2)nn1 [Compound 1-18, N-(6-bromobenzo[d]thiazol-2-yl)-4-((6-methylpyridazin-3-yl)oxy)benzamide]

inhibition at 10 µM [%] | SMILES
13 | CCc1cnc(Oc2ccc(C(=O)Nc3nc4ccccc4s3)cc2)nc1 [Compound 1-19, N-(benzo[d]thiazol-2-yl)-4-((5-ethylpyrimidin-2-yl)oxy)benzamide]
63 | CCc1cnc(Oc2cccc(C(=O)Nc3nc4ccccc4s3)c2)nc1 [Compound 1-20, N-(benzo[d]thiazol-2-yl)-3-((5-ethylpyrimidin-2-yl)oxy)benzamide]
41 | O=C(Nc1nc2ccccc2s1)c1ccc(Oc2ncc(F)cn2)cc1 [Compound 1-21, N-(benzo[d]thiazol-2-yl)-4-((5-fluoropyrimidin-2-yl)oxy)benzamide]
49 | CC(C)(C)OC(=O)N1CCN(c2nc3ccccc3s2)CC1 [Compound 1-22, tert-butyl 4-(benzo[d]thiazol-2-yl)piperazine-1-carboxylate]
78 | c1ccc2sc(N3CCC4(CC3)OCCO4)nc2c1 [Compound 1-23, 8-(benzo[d]thiazol-2-yl)-1,4-dioxa-8-azaspiro[4.5]decane]
10 | CC(C)(C)OC(=O)N1CCC2(CC1)CN(c1nc3ccccc3s1)C2 [Compound 1-24, tert-butyl 2-(benzo[d]thiazol-2-yl)-2,7-diazaspiro[3.5]nonane-7-carboxylate]
72 | CC(C)(C)OC(=O)N1C[C@@H]2C[C@H]1CN2Cc1ccc(C(=O)Nc2nc3ccccc3s2)cc1 [Compound 1-25, Tert-Butyl (1S,4S)-5-(4-(benzo[d]thiazol-2-ylcarbamoyl)benzyl)-2,5-diazabicyclo[2.2.1]heptane-2-carboxylate]
40 | CC(C)(C)OC(=O)N1CCN(Cc2ccc(C(=O)Nc3nc4ccccc4s3)cc2)CC1 [Compound 1-26, Tert-Butyl 4-(4-(benzo[d]thiazol-2-ylcarbamoyl)benzyl)piperazine-1-carboxylate]
27 | CC(C)(C)OC(=O)N1CC2(CCN(Cc3ccc(C(=O)Nc4nc5ccccc5s4)cc3)CC2)C1 [Compound 1-27, tert-butyl 7-(4-(benzo[d]thiazol-2-ylcarbamoyl)benzyl)-2,7-diazaspiro[3.5]nonane-2-carboxylate]
62 | CC(C)(C)OC(=O)N1CCC2(CCN(Cc3ccc(C(=O)Nc4nc5ccccc5s4)cc3)CC2)CC1 [Compound 1-28, tert-butyl 9-(4-(benzo[d]thiazol-2-ylcarbamoyl)benzyl)-3,9-diazaspiro[5.5]undecane-3-carboxylate]
83 | O=C(Nc1nc2ccccc2s1)c1ccc(CN2CCC3(CC2)OCCO3)cc1 [Compound 1-29, 4-((1,4-dioxa-8-azaspiro[4.5]decan-8-yl)methyl)-N-(benzo[d]thiazol-2-yl)benzamide]
19 | c1ccc(CN2CCC3(CC2)CN(c2nc4ccccc4s2)C3)cc1 [Compound 1-30, 2-(7-benzyl-2,7-diazaspiro[3.5]nonan-2-yl)benzo[d]thiazole]
15 | O=C(Nc1nc2ccccc2s1)c1ccc(CN2CCNCC2)cc1 [Compound 1-31, N-(benzo[d]thiazol-2-yl)-4-(piperazin-1-ylmethyl)benzamide]
34 | CCS(=O)(=O)N1CCN(Cc2ccc(C(=O)Nc3nc4ccccc4s3)cc2)CC1 [Compound 1-32, N-(benzo[d]thiazol-2-yl)-4-((4-(ethylsulfonyl)piperazin-1-yl)methyl)benzamide]
33 | CN(C)S(=O)(=O)N1CCN(Cc2ccc(C(=O)Nc3nc4ccccc4s3)cc2)CC1 [Compound 1-33, N-(benzo[d]thiazol-2-yl)-4-((4-(N,N-dimethylsulfamoyl)piperazin-1-yl)methyl)benzamide]
29 | O=C(Nc1nc2ccccc2s1)c1ccc(CN2CCN(S(=O)(=O)C3CC3)CC2)cc1 [Compound 1-34, N-(benzo[d]thiazol-2-yl)-4-((4-(cyclopropylsulfonyl)piperazin-1-yl)methyl)benzamide]
20 | O=C(Nc1nc2ccccc2s1)c1ccc(CN2CCN(S(=O)(=O)c3ccccc3)CC2)cc1 [Compound 1-35, N-(benzo[d]thiazol-2-yl)-4-((4-(phenylulfonyl)piperazin-1-yl)methyl)benzamide]
15 | O=C(Nc1nc2ccccc2s1)c1ccc(CN2CCN(S(=O)(=O)c3ccc(C(F)(F)F)cc3)CC2)cc1 [Compound 1-36, N-(benzo[d]thiazol-2-yl)-4-((4-((4-(trifluoromethyl)phenyl)sulfonyl)piperazin-1-yl)methyl)benzamide]
